As usually defined, the inhibition is the relative decrease from the control value, in per cent.

The target of this assay is T1, Human Recombinant Matriptase 2 (Homo sapiens, UniProt Q8IU80).
T1 construct: purchased Enzo Life Sciences (an in-house preparation was also used) ALX-201-752-1
T1 sequence (Q8IU80 1-811): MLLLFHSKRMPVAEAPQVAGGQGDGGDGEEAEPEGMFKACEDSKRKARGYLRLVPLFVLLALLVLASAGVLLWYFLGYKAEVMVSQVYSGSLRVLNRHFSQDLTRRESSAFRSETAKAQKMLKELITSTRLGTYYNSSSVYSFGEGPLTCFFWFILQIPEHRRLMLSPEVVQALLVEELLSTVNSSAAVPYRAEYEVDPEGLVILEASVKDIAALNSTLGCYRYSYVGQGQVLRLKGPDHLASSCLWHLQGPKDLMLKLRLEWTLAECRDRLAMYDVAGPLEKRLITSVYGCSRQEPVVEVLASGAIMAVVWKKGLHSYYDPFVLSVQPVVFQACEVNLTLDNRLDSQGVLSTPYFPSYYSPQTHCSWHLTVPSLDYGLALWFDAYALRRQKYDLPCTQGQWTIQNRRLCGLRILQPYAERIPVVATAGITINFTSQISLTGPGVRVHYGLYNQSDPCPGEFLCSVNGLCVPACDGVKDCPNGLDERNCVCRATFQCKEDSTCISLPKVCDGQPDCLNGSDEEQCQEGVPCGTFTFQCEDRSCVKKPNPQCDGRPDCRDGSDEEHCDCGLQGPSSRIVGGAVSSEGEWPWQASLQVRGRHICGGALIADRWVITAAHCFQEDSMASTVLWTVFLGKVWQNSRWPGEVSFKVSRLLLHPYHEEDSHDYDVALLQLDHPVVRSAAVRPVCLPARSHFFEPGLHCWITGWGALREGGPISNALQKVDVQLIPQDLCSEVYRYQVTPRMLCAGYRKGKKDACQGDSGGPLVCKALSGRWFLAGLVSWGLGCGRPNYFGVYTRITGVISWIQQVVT
As to the kind of experiment: Matriptase 2 fluorescence based inhibition assay, Method A (100 mM TRIS pH 9, 1 mg/mL BSA). Type of assay: biochemical. The conditions noted are these: at 1 uM; Assay Used = A; read-out: Mar-2 % inhibition at 1 uM. The gist of the method:
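At 25° C in 100 mM TRIS pH 9 with 1 mg/mL BSA and 1% DMSO, compounds were preincubated 30 min with 7 nM commercial or 15 nM in-house protein before adding 100 μM Boc-Gln-Ala-Arg-7-amido-4-methyl coumarin. Fluorescence at 360/480 nm after 60 min; single points at 1 and 10 μM, IC50 by variable-slope nonlinear regression.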

In the case of `COc1ccc(CCn2c(C(=O)N3CCC(CCN)CC3)cc3ccc(C(=N)N)cc32)cc1` [Compound I-302], the inhibition at 1 µM is 25 to 50%.

`N=C(N)c1ccc2cc(C(=O)N3CCC(F)(F)CC3)n(Cc3ccc(-c4ccccc4)cc3)c2c1` [Compound I-306]: the inhibition at 1 µM lay within 0 to 25%.

`N=C(N)c1ccc2cc(C(=O)N3CCCC(F)(F)C3)n(Cc3ccc(-c4ccccc4)cc3)c2c1` [Compound I-307]: the inhibition at 1 µM fell in the range of 0 to 25%.

As to `N=C(N)c1ccc2cc(C(=O)N3CCC(CF)CC3)n(Cc3ccc(-c4ccccc4)cc3)c2c1` [Compound I-308], the inhibition at 1 µM lay within 0 to 25%.

Regarding `N=C(N)c1ccc2cc(C(=O)N3CC[C@H](F)C3)n(Cc3ccc(-c4ccccc4)cc3)c2c1` [Compound I-309], the inhibition at 1 µM is 0 to 25%.

As for `N=C(N)c1ccc2cc(C(=O)N3CCC(F)(F)C3)n(Cc3ccc(-c4ccccc4)cc3)c2c1` [Compound I-310], the inhibition at 1 µM lay within 0 to 25%.

Regarding `N=C(N)c1ccc2cc(C(=O)N3CCc4ccccc4C3)n(Cc3ccc(-c4ccccc4)cc3)c2c1` [Compound I-311], the inhibition at 1 µM lay within 0 to 25%.

Regarding `N=C(N)c1ccc2cc(C(=O)N3CC[C@@H](F)C3)n(Cc3ccc(Oc4ccccc4)cc3)c2c1` [Compound I-313], the inhibition at 1 µM is 0 to 25%.

Take `N=C(N)c1ccc2cc(C(=O)N3CCC(F)(F)C3)n(Cc3ccc(Oc4ccccc4)cc3)c2c1` [Compound I-314]: the inhibition at 1 µM fell in the range of 0 to 25%.

Turning to `N=C(N)c1ccc2cc(C(=O)N3CCCC(F)(F)C3)n(Cc3ccc(Oc4ccccc4)cc3)c2c1` [Compound I-315], the inhibition at 1 µM lay in the range of 0 to 25%.

As to `N=C(N)c1ccc2cc(C(=O)N3CCC(CCN)CC3)n(Cc3ccc(Oc4ccc(F)cc4)cc3)c2c1` [Compound I-316], the inhibition at 1 µM is 0 to 25%.

`N=C(N)c1ccc2cc(C(=O)N3CCC(CCN)CC3)n(Cc3ccc(Oc4ccc(F)cc4)nc3)c2c1` [Compound I-317]: the inhibition at 1 µM is 25 to 50%.

As for `N=C(N)c1ccc2cc(C(=O)N3CCC(CCN)CC3)n(Cc3ccc(Oc4cccc(C(F)(F)F)c4)cc3)c2c1` [Compound I-319], the inhibition at 1 µM is 25 to 50%.

Take `N=C(N)c1ccc2cc(C(=O)N3CCC(CCN)CC3)n(Cc3cccc(Oc4ccccc4)c3)c2c1` [Compound I-321]: the inhibition at 1 µM lay within 25 to 50%.

Consider `N=C(N)c1ccc2cc(C(=O)N3CCC(CCCC(N)=O)CC3)n(Cc3ccc(C(F)(F)F)cc3)c2c1` [Compound I-322], for which the inhibition at 1 µM lay in the range of 0 to 25%.

Turning to `N=C(N)c1ccc2cc(C(=O)N3CCC(F)C3)n(Cc3cccc(C(N)=O)c3)c2c1` (stereo not shown) [Compound I-323, 3-((6-Carbamimidoyl-2-(3-fluoropyrrolidine-1-carbonyl)-1H-indol-1-yl)methyl)benzamide], the inhibition at 1 µM was in the range of 0 to 25%.

Consider `N=C(N)c1ccc2cc(C(=O)N3CCC(F)(F)C3)n(Cc3cccc(C(N)=O)c3)c2c1` [Compound I-324], for which the inhibition at 1 µM fell in the range of 0 to 25%.

Regarding `N=C(N)c1ccc2cc(C(=O)N3CCC[C@@H](CF)C3)n(Cc3cccc(C(N)=O)c3)c2c1` [Compound I-325], the inhibition at 1 µM lay in the range of 0 to 25%.

With `N=C(N)c1ccc2cc(C(=O)N3CCC(F)CC3)n(Cc3ccc(C(N)=O)cc3)c2c1` [Compound I-326], the inhibition at 1 µM was 0 to 25%.

For `N=C(N)c1ccc2cc(C(=O)N3CCC(F)(F)CC3)n(Cc3ccc(C(N)=O)cc3)c2c1` [Compound I-327], the inhibition at 1 µM fell in the range of 0 to 25%.

`N=C(N)c1ccc2cc(C(=O)N3CCCC(F)(F)C3)n(Cc3ccc(C(N)=O)cc3)c2c1` [Compound I-328]: the inhibition at 1 µM lay in the range of 0 to 25%.

With `N=C(N)c1ccc2cc(C(=O)N3CCC(C(F)(F)F)CC3)n(Cc3ccc(C(N)=O)cc3)c2c1` [Compound I-329], the inhibition at 1 µM lay within 0 to 25%.

On to `N=C(N)c1ccc2cc(C(=O)N3CC[C@H](F)C3)n(Cc3ccc(C(N)=O)cc3)c2c1` [Compound I-330], for which the inhibition at 1 µM lay in the range of 0 to 25%.

`N=C(N)c1ccc2cc(C(=O)N3CCC(F)(F)C3)n(Cc3ccc(C(N)=O)cc3)c2c1` [Compound I-331]: the inhibition at 1 µM was 0 to 25%.

`N=C(N)c1ccc2cc(C(=O)N3CCC[C@H](CF)C3)n(Cc3ccc(C(N)=O)cc3)c2c1` [Compound I-332]: the inhibition at 1 µM was 0 to 25%.

`N=C(N)c1ccc2cc(C(=O)N3CC[C@@H](N4CCOCC4)C3)n(Cc3ccc(C(N)=O)cc3)c2c1` [Compound I-333]: the inhibition at 1 µM was 0 to 25%.

Regarding `N=C(N)c1ccc2cc(C(=O)N3CCC(CCN)CC3)n(S(=O)(=O)c3ccc4ccccc4c3)c2c1` [Compound I-335], the inhibition at 1 µM was in the range of 0 to 25%.

For `N=C(N)c1ccc2cc(C(=O)N3CCC(CCN)CC3)n(S(=O)(=O)Cc3ccccc3)c2c1` [Compound I-336], the inhibition at 1 µM was 0 to 25%.

Turning to `N=C(N)c1ccc2cc(C(=O)N3CCC(CCN)CC3)n(CCS(=O)(=O)c3ccccc3)c2c1` [Compound I-337], the inhibition at 1 µM was 0 to 25%.

Consider `N=C(N)c1ccc2cc(C(=O)N3CCCC4CCCCC43)n(CCS(=O)(=O)c3ccccc3)c2c1` (stereo not shown) [Compound I-338], for which the inhibition at 1 µM lay within 0 to 25%.

For `N=C(N)c1ccc2cc(C(=O)N3CCC4CCCCC4C3)n(CCS(=O)(=O)c3ccccc3)c2c1` (stereo not shown) [Compound I-339], the inhibition at 1 µM lay within 0 to 25%.

For the compound `CC1CCN(C(=O)c2cc3ccc(C(=N)N)cc3n2CCS(=O)(=O)c2ccccc2)CC1` [Compound I-340], the inhibition at 1 µM lay within 0 to 25%.

For `N=C(N)c1ccc2cc(C(=O)N3CC[C@@H](F)C3)n(CCS(=O)(=O)c3ccccc3)c2c1` [Compound I-341], the inhibition at 1 µM was in the range of 0 to 25%.

With `N=C(N)c1ccc2cc(C(=O)N3CCC(F)(F)C3)n(CCS(=O)(=O)c3ccccc3)c2c1` [Compound I-342], the inhibition at 1 µM lay within 0 to 25%.

`N=C(N)c1ccc2cc(C(=O)N3CCC(F)CC3)n(CCS(=O)(=O)c3ccccc3)c2c1` [Compound I-343]: the inhibition at 1 µM was in the range of 0 to 25%.

On to `N=C(N)c1ccc2cc(C(=O)N3CCC(F)(F)CC3)n(CCS(=O)(=O)c3ccccc3)c2c1` [Compound I-344], for which the inhibition at 1 µM was in the range of 0 to 25%.

Regarding `CC(C)CCn1c(C(=O)N2CCC(CCN)CC2)c(N)c2ccc(C(=N)N)cc21` [Compound I-345, 3-Amino-2-(4-(2-aminoethyl)piperidine-1-carbonyl)-1-isopentyl-1H-indole-6-carboximidamide], the inhibition at 1 µM fell in the range of 25 to 50%.

For `CCOC(=O)c1ccc(Cn2c(C(=O)N3CCC(CCN)CC3)c(N)c3ccc(C(=N)N)cc32)cc1` [Compound I-346], the inhibition at 1 µM was in the range of 0 to 25%.

Turning to `N=C(N)c1ccc2c(N)c(C(=O)N3CCC(CCNC(=O)O)CC3)n(Cc3ccc(Oc4ccccc4)cc3)c2c1` [Compound I-347], the inhibition at 1 µM fell in the range of 0 to 25%.

Regarding `N=C(N)c1ccc2c(N)c(C(=O)N3CCC(CCN)CC3)n(Cc3ccc(Oc4ccccc4)cc3)c2c1` [Compound I-348], the inhibition at 1 µM was in the range of 0 to 25%.

For the compound `N=C(N)c1ccc2c(N)c(C(=O)N3CCC(CCN)CC3)n(CCS(=O)(=O)c3ccccc3)c2c1` [Compound I-349, 3-Amino-2-(4-(2-aminoethyl)piperidine-1-carbonyl)-1-(2-(phenylsulfonyl)ethyl)-1H-indole-6-carboximidamide], the inhibition at 1 µM lay within 25 to 50%.

In the case of `N=C(N)c1ccc2c(N)c(C(=O)N3CCC4CCCCC4C3)n(CCS(=O)(=O)c3ccccc3)c2c1` (stereo not shown) [Compound I-351], the inhibition at 1 µM was in the range of 0 to 25%.

In the case of `N=C(N)c1ccc2c(N)c(C(=O)N3CCc4ccccc4C3)n(CCS(=O)(=O)c3ccccc3)c2c1` [Compound I-352], the inhibition at 1 µM lay in the range of 0 to 25%.

Regarding `N=C(N)c1ccc2c(Cl)c(C(=O)N3CCC(F)CC3)n(Cc3ccc(-c4ccccc4)cc3)c2c1` [Compound I-353, 1-([1,1′-Biphenyl]-4-ylmethyl)-3-chloro-2-(4-fluoropiperidine-1-carbonyl)-1H-indole-6-carboximidamide], the inhibition at 1 µM was in the range of 0 to 25%.

Turning to `N=C(N)c1ccc2c(Cl)c(C(=O)N3CCC(F)(F)C3)n(Cc3ccc(C(N)=O)cc3)c2c1` [Compound I-354], the inhibition at 1 µM lay within 0 to 25%.

For the compound `N=C(N)c1ccc2c(Cl)c(C(=O)N3CCC(F)CC3)n(Cc3ccc(C(N)=O)cc3)c2c1` [Compound I-355], the inhibition at 1 µM lay in the range of 0 to 25%.

`N=C(N)c1ccc2cc(C(=O)N3CCC(C(=O)NCCCN)CC3)n(Cc3ccc(C(F)(F)F)cc3)c2c1` [Compound I-356, N-(3-Aminopropyl)-1-(6-carbamimidoyl-1-(4-(trifluoromethyl)benzyl)-1H-indole-2-carbonyl)-piperidine-4-carboxamide]: the inhibition at 1 µM was 0 to 25%.

For `N=C(N)c1ccc2cc(C(=O)N3CCC(C(=O)NCCN)CC3)n(CCc3ccccc3)c2c1` [Compound I-357], the inhibition at 1 µM fell in the range of 0 to 25%.

`N=C(N)c1ccc2cc(C(=O)N3CCC(C(=O)NCCCN)CC3)n(CCc3ccccc3)c2c1` [Compound I-358]: the inhibition at 1 µM lay in the range of 25 to 50%.

(Values after patent US12428415B2, “Matriptase 2 inhibitors and uses thereof” (Disc Medicine, Inc., priority 2018, dated 2025).)
